Like-named read-outs stand apart in the source and are kept apart here.

Common to all, as to experiment: Kinase panel
Type in all cases: biochemical

The target of assay [1] is T1, FAK(h) (Homo sapiens, UniProt Q05397).
T1 construct: purchased Millipore KinaseProfiler

The target of assay [2] is T2, EGFR(T790M,L858R)(h) (Homo sapiens, UniProt P00533, L858R/T790M).
T2 construct: purchased Millipore KinaseProfiler

In assay [3] the target is T3, Mer(h) (Homo sapiens, UniProt Q12866).
T3 construct: purchased Millipore KinaseProfiler
T3 sequence (Q12866 21-999): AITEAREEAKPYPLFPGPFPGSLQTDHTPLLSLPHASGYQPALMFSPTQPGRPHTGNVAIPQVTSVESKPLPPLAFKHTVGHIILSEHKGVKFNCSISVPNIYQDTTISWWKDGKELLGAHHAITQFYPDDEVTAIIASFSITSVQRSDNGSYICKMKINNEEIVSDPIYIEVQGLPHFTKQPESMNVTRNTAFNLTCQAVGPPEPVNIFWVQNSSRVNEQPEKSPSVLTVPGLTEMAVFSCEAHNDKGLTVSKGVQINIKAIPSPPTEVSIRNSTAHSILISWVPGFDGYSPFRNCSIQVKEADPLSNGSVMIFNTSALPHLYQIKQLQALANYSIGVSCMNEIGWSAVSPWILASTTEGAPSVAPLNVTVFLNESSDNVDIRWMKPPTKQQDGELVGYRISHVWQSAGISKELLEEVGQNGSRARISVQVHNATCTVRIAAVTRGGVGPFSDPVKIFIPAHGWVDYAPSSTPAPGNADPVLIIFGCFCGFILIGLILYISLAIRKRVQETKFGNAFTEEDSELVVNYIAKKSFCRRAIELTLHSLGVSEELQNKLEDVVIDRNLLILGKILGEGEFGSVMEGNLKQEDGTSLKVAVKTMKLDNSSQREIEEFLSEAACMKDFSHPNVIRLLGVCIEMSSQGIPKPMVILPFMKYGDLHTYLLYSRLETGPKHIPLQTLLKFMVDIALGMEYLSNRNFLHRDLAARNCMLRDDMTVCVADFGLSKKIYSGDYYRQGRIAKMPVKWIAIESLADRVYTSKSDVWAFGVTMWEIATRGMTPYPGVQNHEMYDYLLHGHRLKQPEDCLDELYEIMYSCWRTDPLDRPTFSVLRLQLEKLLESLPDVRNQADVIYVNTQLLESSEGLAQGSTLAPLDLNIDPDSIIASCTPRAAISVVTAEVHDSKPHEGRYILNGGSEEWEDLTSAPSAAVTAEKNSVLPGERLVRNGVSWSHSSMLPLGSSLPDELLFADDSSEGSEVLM

In assay [4] the target is T4, EGFR(T790M)(h) (Homo sapiens, UniProt P00533, T790M).
T4 construct: purchased Millipore KinaseProfiler
T4 sequence (P00533 25-1210 T790M): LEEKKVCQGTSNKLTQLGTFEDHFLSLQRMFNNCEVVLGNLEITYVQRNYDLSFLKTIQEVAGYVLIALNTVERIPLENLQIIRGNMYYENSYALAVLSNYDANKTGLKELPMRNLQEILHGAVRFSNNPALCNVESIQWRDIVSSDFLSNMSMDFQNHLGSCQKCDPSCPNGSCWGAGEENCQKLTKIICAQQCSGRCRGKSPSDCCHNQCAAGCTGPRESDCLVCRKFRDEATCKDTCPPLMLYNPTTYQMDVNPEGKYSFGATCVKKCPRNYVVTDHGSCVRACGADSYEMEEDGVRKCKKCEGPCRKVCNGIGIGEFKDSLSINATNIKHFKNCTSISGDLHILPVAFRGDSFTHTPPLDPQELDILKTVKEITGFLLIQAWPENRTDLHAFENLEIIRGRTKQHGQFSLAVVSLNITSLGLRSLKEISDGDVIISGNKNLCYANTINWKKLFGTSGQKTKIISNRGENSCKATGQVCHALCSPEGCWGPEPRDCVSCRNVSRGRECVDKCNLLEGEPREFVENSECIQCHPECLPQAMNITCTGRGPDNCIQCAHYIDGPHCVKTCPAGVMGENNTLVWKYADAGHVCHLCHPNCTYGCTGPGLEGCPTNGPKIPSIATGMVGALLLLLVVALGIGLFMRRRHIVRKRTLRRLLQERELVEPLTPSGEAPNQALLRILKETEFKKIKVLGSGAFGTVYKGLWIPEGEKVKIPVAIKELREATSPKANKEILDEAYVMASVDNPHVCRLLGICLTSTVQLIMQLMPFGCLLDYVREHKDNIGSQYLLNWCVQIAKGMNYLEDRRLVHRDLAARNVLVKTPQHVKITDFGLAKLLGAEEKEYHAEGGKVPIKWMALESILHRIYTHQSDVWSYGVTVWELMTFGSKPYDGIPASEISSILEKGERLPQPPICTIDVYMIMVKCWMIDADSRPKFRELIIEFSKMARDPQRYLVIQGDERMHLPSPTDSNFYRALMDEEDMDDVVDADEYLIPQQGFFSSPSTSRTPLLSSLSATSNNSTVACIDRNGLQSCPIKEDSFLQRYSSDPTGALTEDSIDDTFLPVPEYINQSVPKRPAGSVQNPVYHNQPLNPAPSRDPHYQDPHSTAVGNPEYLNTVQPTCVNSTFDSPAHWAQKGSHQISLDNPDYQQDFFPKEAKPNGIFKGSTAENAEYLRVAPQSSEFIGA

For assay [5], the target named is T5, SGK2(h) (Homo sapiens, UniProt Q9HBY8).
T5 construct: purchased Millipore KinaseProfiler
T5 sequence (Q9HBY8 1-367): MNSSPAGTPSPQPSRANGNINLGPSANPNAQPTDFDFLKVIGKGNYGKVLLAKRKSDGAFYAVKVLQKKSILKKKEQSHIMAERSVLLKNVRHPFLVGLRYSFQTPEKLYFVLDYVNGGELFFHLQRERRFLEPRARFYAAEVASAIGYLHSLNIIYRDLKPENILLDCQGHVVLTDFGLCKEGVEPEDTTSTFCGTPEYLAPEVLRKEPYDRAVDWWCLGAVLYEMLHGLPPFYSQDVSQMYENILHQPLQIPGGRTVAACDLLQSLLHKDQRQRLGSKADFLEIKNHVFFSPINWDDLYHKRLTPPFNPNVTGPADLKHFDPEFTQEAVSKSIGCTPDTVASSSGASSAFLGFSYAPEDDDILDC

In assay [6] the target is T6, PhKγ2(h) (Homo sapiens, UniProt P15735).
T6 construct: purchased Millipore KinaseProfiler
T6 sequence (P15735 1-406): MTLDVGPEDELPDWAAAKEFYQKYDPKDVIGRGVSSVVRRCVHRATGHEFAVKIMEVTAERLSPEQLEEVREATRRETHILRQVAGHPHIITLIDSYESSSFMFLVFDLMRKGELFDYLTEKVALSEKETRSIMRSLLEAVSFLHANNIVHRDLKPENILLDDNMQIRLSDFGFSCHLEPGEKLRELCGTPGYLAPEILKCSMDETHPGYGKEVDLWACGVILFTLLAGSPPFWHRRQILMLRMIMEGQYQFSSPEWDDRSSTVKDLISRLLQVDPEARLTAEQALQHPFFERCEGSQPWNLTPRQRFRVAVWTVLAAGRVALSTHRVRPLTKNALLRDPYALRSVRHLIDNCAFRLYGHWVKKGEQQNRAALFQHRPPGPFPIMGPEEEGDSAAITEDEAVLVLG

In assay [7] the target is T7, Lyn(h) (Homo sapiens, UniProt P07948).
T7 construct: purchased Millipore KinaseProfiler
T7 sequence (P07948 whole entry): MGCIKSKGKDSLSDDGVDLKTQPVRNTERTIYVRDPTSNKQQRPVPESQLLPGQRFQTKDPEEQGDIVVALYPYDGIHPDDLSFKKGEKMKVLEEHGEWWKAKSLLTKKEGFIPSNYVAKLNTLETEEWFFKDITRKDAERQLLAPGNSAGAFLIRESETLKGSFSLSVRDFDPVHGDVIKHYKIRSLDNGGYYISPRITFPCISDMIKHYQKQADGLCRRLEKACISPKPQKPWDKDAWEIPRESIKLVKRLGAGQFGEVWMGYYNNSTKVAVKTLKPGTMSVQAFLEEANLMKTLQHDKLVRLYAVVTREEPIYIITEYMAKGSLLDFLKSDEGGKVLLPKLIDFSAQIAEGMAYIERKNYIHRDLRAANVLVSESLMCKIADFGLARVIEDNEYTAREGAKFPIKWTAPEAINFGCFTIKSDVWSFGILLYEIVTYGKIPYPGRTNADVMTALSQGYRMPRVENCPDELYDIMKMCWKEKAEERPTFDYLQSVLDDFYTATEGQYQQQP

Assay [8] deals with T8, Itk(h) (Homo sapiens, UniProt Q08881).
T8 construct: purchased Millipore KinaseProfiler
T8 sequence (Q08881 1-620): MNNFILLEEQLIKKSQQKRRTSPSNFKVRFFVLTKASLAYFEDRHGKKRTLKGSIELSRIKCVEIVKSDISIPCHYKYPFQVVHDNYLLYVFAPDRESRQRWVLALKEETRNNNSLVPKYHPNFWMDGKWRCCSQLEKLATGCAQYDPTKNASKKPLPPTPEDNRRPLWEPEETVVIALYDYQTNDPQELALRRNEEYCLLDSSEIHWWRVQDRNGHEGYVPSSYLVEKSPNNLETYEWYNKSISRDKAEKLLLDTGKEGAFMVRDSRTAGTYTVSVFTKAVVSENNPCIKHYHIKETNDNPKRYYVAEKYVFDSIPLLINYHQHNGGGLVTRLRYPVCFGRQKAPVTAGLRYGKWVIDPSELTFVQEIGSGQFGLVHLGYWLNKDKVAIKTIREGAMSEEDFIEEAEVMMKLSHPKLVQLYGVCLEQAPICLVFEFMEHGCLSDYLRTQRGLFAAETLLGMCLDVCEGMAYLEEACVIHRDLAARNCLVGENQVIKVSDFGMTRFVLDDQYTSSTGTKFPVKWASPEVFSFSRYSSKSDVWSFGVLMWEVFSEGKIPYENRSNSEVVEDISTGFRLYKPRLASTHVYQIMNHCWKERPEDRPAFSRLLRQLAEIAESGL

T1 sequence (Q05397 whole entry): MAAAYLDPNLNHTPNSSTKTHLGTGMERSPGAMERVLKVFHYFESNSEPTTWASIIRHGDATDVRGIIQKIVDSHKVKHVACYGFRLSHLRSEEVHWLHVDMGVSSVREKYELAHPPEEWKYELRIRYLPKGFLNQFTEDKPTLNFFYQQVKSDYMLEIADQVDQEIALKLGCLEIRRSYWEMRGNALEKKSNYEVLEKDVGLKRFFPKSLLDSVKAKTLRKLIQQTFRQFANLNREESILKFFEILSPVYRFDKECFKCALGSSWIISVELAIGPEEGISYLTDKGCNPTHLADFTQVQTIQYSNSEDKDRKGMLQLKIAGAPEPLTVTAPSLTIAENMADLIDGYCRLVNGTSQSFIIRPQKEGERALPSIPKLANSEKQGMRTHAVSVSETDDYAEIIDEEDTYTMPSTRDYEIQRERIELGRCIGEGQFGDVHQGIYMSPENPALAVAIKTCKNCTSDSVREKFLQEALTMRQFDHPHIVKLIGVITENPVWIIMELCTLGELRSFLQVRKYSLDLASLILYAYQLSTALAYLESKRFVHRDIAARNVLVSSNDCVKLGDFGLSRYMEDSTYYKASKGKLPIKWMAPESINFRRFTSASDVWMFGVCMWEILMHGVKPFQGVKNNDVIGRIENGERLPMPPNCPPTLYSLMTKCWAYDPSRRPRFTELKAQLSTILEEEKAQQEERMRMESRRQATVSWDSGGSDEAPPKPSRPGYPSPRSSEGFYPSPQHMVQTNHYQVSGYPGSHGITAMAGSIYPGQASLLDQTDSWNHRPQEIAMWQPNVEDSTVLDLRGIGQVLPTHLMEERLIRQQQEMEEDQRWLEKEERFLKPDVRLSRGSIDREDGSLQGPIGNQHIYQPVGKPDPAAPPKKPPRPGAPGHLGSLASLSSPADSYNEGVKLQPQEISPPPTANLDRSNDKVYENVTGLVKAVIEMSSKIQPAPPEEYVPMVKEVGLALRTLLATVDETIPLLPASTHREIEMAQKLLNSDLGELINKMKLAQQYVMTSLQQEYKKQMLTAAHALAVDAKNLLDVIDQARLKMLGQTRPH
T2 sequence (P00533 25-1210 T790M/L858R): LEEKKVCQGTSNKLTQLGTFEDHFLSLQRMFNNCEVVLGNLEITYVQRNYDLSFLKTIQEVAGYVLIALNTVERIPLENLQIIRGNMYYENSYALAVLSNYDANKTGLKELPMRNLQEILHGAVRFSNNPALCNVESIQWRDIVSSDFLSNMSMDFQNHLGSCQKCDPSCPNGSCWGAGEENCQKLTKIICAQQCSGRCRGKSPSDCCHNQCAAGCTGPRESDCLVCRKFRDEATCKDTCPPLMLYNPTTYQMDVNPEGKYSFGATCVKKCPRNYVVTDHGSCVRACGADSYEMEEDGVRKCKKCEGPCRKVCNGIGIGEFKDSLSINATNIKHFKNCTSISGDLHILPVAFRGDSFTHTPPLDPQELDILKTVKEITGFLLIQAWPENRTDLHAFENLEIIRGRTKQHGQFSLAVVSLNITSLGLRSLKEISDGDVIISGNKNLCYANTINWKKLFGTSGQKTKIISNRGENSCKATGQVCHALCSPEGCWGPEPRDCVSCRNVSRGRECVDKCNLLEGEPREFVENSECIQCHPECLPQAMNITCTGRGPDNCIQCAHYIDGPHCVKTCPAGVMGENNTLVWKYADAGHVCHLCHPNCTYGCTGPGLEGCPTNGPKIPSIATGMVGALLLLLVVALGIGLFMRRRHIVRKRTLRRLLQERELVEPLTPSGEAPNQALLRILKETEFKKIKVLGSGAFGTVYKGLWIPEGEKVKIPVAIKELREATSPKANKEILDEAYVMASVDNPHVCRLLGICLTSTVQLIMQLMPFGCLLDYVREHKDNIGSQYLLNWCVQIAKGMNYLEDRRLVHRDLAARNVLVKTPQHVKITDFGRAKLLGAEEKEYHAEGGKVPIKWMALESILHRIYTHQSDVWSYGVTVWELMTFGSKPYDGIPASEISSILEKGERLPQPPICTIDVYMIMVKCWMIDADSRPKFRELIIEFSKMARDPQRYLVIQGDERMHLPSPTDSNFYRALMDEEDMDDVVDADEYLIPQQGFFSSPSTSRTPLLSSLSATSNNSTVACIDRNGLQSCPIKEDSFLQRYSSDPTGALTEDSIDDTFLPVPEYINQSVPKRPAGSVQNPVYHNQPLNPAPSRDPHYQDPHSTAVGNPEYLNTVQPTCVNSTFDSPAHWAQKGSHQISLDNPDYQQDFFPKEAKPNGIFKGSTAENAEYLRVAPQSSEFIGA

Regarding `Cn1ncc(Cl)c1-c1cc(C(=O)N[C@H](CN)Cc2ccc(F)c(F)c2)oc1Cl` [GSK2141795], the inhibition at 0.5 µM was -3% in assay [1] (0.5 µM, read-out: % Inhibition); -7% in assay [2] (0.5 µM, read-out: % Inhibition); 10% in assay [3] (0.5 µM, read-out: % Inhibition); -5% in assay [4] (0.5 µM, read-out: % Inhibition); 67% in assay [5] (0.5 µM, read-out: % Inhibition); 23% in assay [6] (0.5 µM, read-out: % Inhibition). Besides, the inhibition at 0.5 µM in assay [7] (0.5 µM, read-out: % Inhibition) is -10%; in assay [8] (0.5 µM, read-out: % Inhibition), -15%. In addition, the inhibition at 10 µM in assay [1] (10 µM, read-out: % Inhibition) was determined as 5%; in assay [2] (10 µM, read-out: % Inhibition) it was 18%; in assay [3] (10 µM, read-out: % Inhibition), 63%; in assay [4] (10 µM, read-out: % Inhibition) it was 2%; in assay [5] (10 µM, read-out: % Inhibition), 97%; in assay [6] (10 µM, read-out: % Inhibition), 88%. The inhibition at 10 µM in assay [7] (10 µM, read-out: % Inhibition) is 41%; in assay [8] (10 µM, read-out: % Inhibition), -7%.
On to `Cn1ncc(Cl)c1-c1cc(C(=O)N[C@H](CN)Cc2cccc(F)c2)sc1Cl` [GSK2110183], for which the inhibition at 0.5 µM in assay [1] is 1%; in assay [2], -32%; in assay [3], 2%; in assay [4], -1%; in assay [5], 51%; in assay [6] it was 31%. The inhibition at 0.5 µM is -12% in assay [7] and 0% in assay [8]. For the same compound, the inhibition at 10 µM was 39% in assay [1]; -3% in assay [2]; 65% in assay [3]; 2% in assay [4]; 95% in assay [5]; 89% in assay [6]. The figures for the inhibition at 10 µM in assay [7] and in assay [8] were 7% and 2%, respectively.

Values taken from publication PMC4076210, “Discovery of Novel AKT Inhibitors with Enhanced Anti-Tumor Effects in Combination with the MEK Inhibitor” (PLoS ONE, 2014).
